One assay deals with PA1b receptor. Nature of the assay: Competitive ligand binding with 125I-PA1b on microsomal protein. The following applies: competition with 0.4 nM 125I-PA1b, 20 µg microsomal protein per assay, peptide 0.01 to 1000 nM, mean ± standard error, read-out: Ki (affinity to the PA1b receptor). As to the method: To evaluate the affinity of synthetic AG41 and its mutants to PA1b receptor, ligand binding studies were conducted ^125I-toxin [29]. […] Total binding was assessed using 20 µg per assay of microsomal protein (sedimenting at 45,000 g) and 0.4 nM of I^125-PA1b, while in the non-specific binding assays 1000 nM of unlabeled AG41 or alanine mutant peptide was added. The level of specific binding (i.e., total binding minus non-specific binding) was estimated based on three replicates. Competitive experiments were performed with 0.4 nM ^125I-PA1b (specific radioactivity of approximately 1000 Ci.mmol^−1) and competition was performed with AG41 and its alanine mutant peptides at concentrations ranging from 0.01 to 1000 nM.
(§1) The experimental Ki and LD5O data were assessed separately by non-linear regression analysis using the SIMFIT software package. Biological results are expressed as mean ± S.E. (standard error).

Assay [1] deals with Spodoptera frugiperda Sf9 insect cells. Nature of the assay: Viability assay (MTT) on cultured Sf9 insect cells. Type of assay: cell-based. The conditions noted are these: 24 h exposure, 27 °C, each concentration in triplicate, mean ± standard error, SEM. The procedure: Viability assays were performed on Spodoptera frugiperda Sf9 insect cells in culture using the 3-(4,5-dimethylthiazol-2-yl)-2,5-diphenyltetrazolium bromide (MTT) protocol. Briefly, Sf9 cells lines were grown at 27 °C in Lonza’s culture medium, supplemented with 5% fetal bovine serum (FBS) and 0.1% gentamicin. Sf9 cells were seeded, in 96-well plates, 24 h prior to the experiments (15,000 cells/well) and were exposed to increasing concentrations of AG41 and its alanine mutant peptides for 24 h. Each concentration was performed in triplicate. Cell viability was determined by a colorimetric assay based on the ability of viable cells to reduce MTT. Cells were loaded with MTT solution (0.5 mg ml^−^1) and incubated at 27 °C for 2 h. Cell homogenates were used to measure absorbance at 550 nm using a microplate reader (MR 7000, Dynatech Laboratories Inc., Richmond, CA, USA).
as §1

Read-outs that look alike come from different tables or passages of the source. Bridge positions count the residues as written; N and C are the ends. Ends that are not written are not given here.

For orientation: Ki means the equilibrium dissociation constant of an inhibitor or competing ligand from its target.

As for “ASCPNVGAVCSPAETKPCGNVKDCRCLPWGLFFGTCINPTG (also: bicyclic or more (positions not given here)) [F13A, single point alanine mutant of AG41 at Phe-13]”, the inhibition constant Ki on PA1b receptor was more than 1 µM. Turning to “ASCPNVGAVCSPFATKPCGNVKDCRCLPWGLFFGTCINPTG (also: bicyclic or more (positions not given here)) [E14A, single point alanine mutant of AG41 at Glu-14]”, the inhibition constant (Ki) at PA1b receptor (SEM) was found to be 0.0012 ± 0.0013 µM. For the sequence “ASCPNVGAVCSPFETAPCGNVKDCRCLPWGLFFGTCINPTG (disulfide 3-24, 10-26, 18-36) [K16A]”, in assay [1], the “LD50 (insect cell toxicity)” value is given as 10.0 ± 4.0 nM. The inhibition constant Ki at PA1b receptor (SEM) was 0.0036 ± 0.0016 µM. Regarding “ASCPNVGAVCSPFETKPCGNVADCRCLPWGLFFGTCINPTG (disulfide 3-24, 10-26, 18-36) [K22A]”, the “LD50 (insect cell toxicity)” value in assay [1] is reported as 14.2 ± 6.3 nM. Moreover, the inhibition constant Ki on PA1b receptor (SEM) was 0.0032 ± 0.0017 µM. With “ASCPNVGAVCSPFETKPCGNVKACRCLPWGLFFGTCINPTG (disulfide 3-24, 10-26, 18-36) [D23A]”, the “LD50 (insect cell toxicity)” value in assay [1] is 24 ± 9 nM. For the same sequence, the Ki on PA1b receptor (SEM) is 0.0012 ± 0.0016 µM. Consider “ASCPNVGAVCSPFETKPCGNVKDCACLPWGLFFGTCINPTG (also: bicyclic or more (positions not given here)) [R25A, single point alanine mutant of AG41 at Arg-25]”, for which the Ki on PA1b receptor was more than 1 µM. For “ASCPNVGAVCSPFETKPCGNVKDCRCAPWGLFFGTCINPTG (disulfide 3-24, 10-26, 18-36) [L27A]”, the “LD50 (insect cell toxicity)” value in assay [1] was 907 ± 46 nM. Besides, the inhibition constant (Ki) at PA1b receptor (SEM) turned out to be 0.486 ± 0.011 µM. For the sequence “ASCPNVGAVCSPFETKPCGNVKDCRCLPAGLFFGTCINPTG (disulfide 3-24, 10-26, 18-36) [W29A]”, the “LD50 (insect cell toxicity)” value in assay [1] was 89.0 ± 3.7 nM. In addition, the Ki on PA1b receptor (SEM) was determined as 0.0363 ± 0.0067 µM. With “ASCPNVGAVCSPFETKPCGNVKDCRCLPWGAFFGTCINPTG (also: bicyclic or more (positions not given here)) [L31A, single point alanine mutant of AG41 at Leu-31]”, the Ki at PA1b receptor (SEM) stood at 0.263 ± 0.008 µM.

For the sequence “ASCPNVGAVCSPFETKPCGNVKDCRCLPWGLAFGTCINPTG (disulfide 3-24, 10-26, 18-36) [F32A]”, the “LD50 (insect cell toxicity)” value in assay [1] came out at 122 ± 12 nM. Moreover, the inhibition constant (Ki) at PA1b receptor (SEM) came to 0.0398 ± 0.015 µM. The like results for “ASCPNVGAVCSPFETKPCGNVKDCRCLPWGLFAGTCINPTG (disulfide 3-24, 10-26, 18-36) [F33A]” were, in that order, 210 ± 8 nM and 0.015 ± 0.0048 µM. On to “ASCPNVGAVCSPFETKPCGNVKDCRCLPWGLFFGTCINPTG (disulfide 3-24, 10-26, 18-36) [AG41]”, for which the “LD50 (insect cell toxicity)” value in assay [1] was 5.6 ± 1.8 nM. Besides, on PA1b receptor (SEM), the inhibition constant (Ki) was 0.0013 ± 0.0006 µM.

These data come from PMC10046687, “Residues of Legume AG41 Peptide Crucial to Its Bio-Insecticidal Activity” (Biomolecules, 2023).
